Experimental data from patent US20260215418A1, “HYDROCARBON ALCOHOLS AND THEIR DERIVATIVES AS SYNERGISTS IN PESTICIDE ACTIVITY” (priority 2022, published 2026).
“Also recorded” adds a separate entry of the source.

How the values were obtained:
Blatta lateralis = assay: Contact test on non-porous tile, Blatta lateralis; assay type: in vivo; settings: Blatta lateralis; synergist applied with Imidacloprid
Method: 1 ml of Composition 24 was distributed on the tile. […] 1 ml of Composition 20c was distributed on a tile. […] 1 ml of Composition 20d was distributed on a tile.
1 ml of Composition 24 was distributed on the tile. […] 1 ml of Composition 28 was distributed on a tile. […] Each experiment (A-B) was conducted in duplicate.
1 ml of Composition 24 was distributed on the tile. […] 1 ml of Composition 21 was distributed on a tile.
1 ml of Composition 4b was distributed on the tile. […] 1 ml of Composition 31c was distributed on a tile. […] 1 ml of Composition 31d was distributed on a tile. […] 1 ml of Composition 31d was distributed on a tile.
1 ml of Composition 24 was distributed on the tile. […] 1 ml of Composition 35 was distributed on a tile. […] 1 ml of Composition 40b was distributed on a tile. […] 1 ml of Composition 42 was distributed on a tile.

Musca domestica L. = assay: Contact test on non-porous tile, Musca domestica; assay type: in vivo; settings: for synergizing effect on Azamethiphos / synergizing effect on Cypermethrin / synergizing effect on Spinosad: Musca domestica L.; for synergizing effect on Azamethiphos: synergist applied with Azamethiphos; for synergizing effect on Cypermethrin: synergist applied with Cypermethrin; for synergizing effect on Spinosad: synergist applied with Spinosad; for mortality at 680 µg/mL: 0.68 mg/ml
[1] = Musca domestica, single substance alone, 48 h, read-out: Mortality %/time (h)

Compound | synergizing effect on Imidacloprid (Blatta lateralis) | synergizing effect on Azamethiphos (Musca domestica L.) | synergizing effect on Cypermethrin (Musca domestica L.) | synergizing effect on Spinosad (Musca domestica L.) | mortality at 150 µg/mL (Musca domestica L.; Musca domestica, single substance alone, 0.15 mg/ml, 48 h, read-out: Mortality %/time (h)) [%] | mortality at 510 µg/mL (Musca domestica L.; Musca domestica, single substance alone, 0.51 mg/ml, 48 h, read-out: Mortality %/time (h)) [%] | mortality at 680 µg/mL (Musca domestica L.; [1]) [%] | mortality at 1020 µg/mL (Musca domestica L.; Musca domestica, single substance alone, 1.02 mg/ml, 48 h, read-out: Mortality %/time (h)) [%] | mortality at 33000 µg/mL (Musca domestica L.; Musca domestica, single substance alone, 33.00 mg/ml, 48 h, read-out: Mortality %/time (h)) [%] | Mortality %/time (h) (Musca domestica L.; single substance alone, 0.15 mg/ml, 48 h) | Mortality %/time (h) (Musca domestica L.; single substance alone, 0.51 mg/ml, 48 h) | Mortality %/time (h) (Musca domestica L.; single substance alone, 0.88 mg/ml, 48 h) | Mortality %/time (h) (Musca domestica L.; single substance alone, 28.53 mg/ml, 48 h)
CCCCCCCC/C=C\CCCCCCCCOC(C)=O [Oleyl acetate] | excellent synergizing effect | high synergizing effect | high synergizing effect | fine synergizing effect | 0 | 0 | 60 | 0 | 18 |  |  |  | 
CCCCCCCCOC(=O)OCCCCCCCC [dioctyl carbonate] | good synergizing effect | excellent synergizing effect | high synergizing effect | fine synergizing effect |  |  | 33 |  |  |  |  |  | 
Oleic alcohol [Oleic alcohol 95%] | same synergizing effect of PBO | high synergizing effect | synergistic effect, comparable to the activity shown by PBO; also recorded: good synergizing effect |  |  |  |  |  |  | 1/48 ^ % | 5/48 ^ % | 8/48 ^ % | 18/48 ^ %
